In patent publication US5677293A, “16 unsaturated C17 heterocyclic steroids useful as steroid C17-20 lyase inhibitors” (Merrell Pharmaceuticals Inc., priority 1996, dated 1997):

Key:
Type in all cases: biochemical
[1] = molecular target: T1, Cynomolgus Monkey Testicular C17-20 Lyase (Macaca fascicularis, UniProt Q2XVA1); assay: Screen for time-dependent inhibition / inhibition of cynomolgus monkey testicular C17-20 lyase (microsomal preparation)
T1 construct: Microsomes are isolated from human or cynomolgus monkey tissue; from tissue; host or cells: cynomolgus monkey testis, microsomes
T1 sequence (Q2XVA1 1-508): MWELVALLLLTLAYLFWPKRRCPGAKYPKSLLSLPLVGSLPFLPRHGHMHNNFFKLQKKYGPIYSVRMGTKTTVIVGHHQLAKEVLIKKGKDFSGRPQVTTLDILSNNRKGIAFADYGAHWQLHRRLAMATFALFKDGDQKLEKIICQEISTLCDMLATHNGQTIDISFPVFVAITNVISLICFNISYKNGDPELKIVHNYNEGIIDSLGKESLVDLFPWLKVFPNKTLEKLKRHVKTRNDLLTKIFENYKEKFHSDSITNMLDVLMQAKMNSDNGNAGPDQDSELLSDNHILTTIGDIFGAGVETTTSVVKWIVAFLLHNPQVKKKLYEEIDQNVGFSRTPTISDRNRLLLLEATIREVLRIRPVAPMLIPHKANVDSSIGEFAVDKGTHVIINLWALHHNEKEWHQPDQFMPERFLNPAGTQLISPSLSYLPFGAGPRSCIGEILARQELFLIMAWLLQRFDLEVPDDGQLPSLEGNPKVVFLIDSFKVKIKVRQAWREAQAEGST
Protocol: (§1) Utilizing an in vitro assay, the activity of the compounds of formulas (I) and (II) as inhibitors of steroid C17-20 lyase are established using microsomal preparations of the enzyme from human or cynomolgus monkey testicular tissue. Human testes were acquired from therapeutic orchiectomies. Microsomes are isolated from human or cynomolgus monkey tissue. The compound to be tested is dissolved in dimethyl sulfoxide and diluted in 0.05M potassium phosphate buffer, pH 7.4, to give the desired concentrations of test compound. Assays contain an NADPH regenerating system comprised of 1 mM NADPH, 5 mM glucose-6-phosphate, 1 IU/mL glucose-6-phosphate dehydrogenase and microsomal protein in a total volume of 0.2 mL. Control assays contain all components, including dimethyl sulfoxide, but no test compound. All assays are performed in duplicate. For determination of time dependent C17-20 lyase inactivation, the test compound is incubated with 20 to 62 μg/mL microsomal protein, buffer and the NADPH regenerating system described above at 34° C. for 0 or 40 minutes. Aliquots of 180 μL are then removed and assayed for enzyme activity by addition to 7-^3 H-17α-hydroxypregnenolone (11.2 mCi/mmole; 0.2 μCi per assay) plus unlabeled 17α-hydroxypregnenolone to give a total substrate concentration of 1.0 μM or 0.3 μM per assay and are subsequently incubated at 34° C. for 6 minutes. For determination of reversible inhibition by the test compound, the reaction is initiated by the addition of substrate, 7-^3 H-17α-hydroxypregnenolone (11.2 mCi/mmole; 0.20 μCi per assay) plus unlabeled 17α-hydroxypregnenolone to yield a final concentration of 0.3 μM (=Km), to the other assay components. The complete assay is incubated at 34° C. for 6 minutes. Each assay is terminated by addition of 5 mL of chloroform/methanol (2:1). Carrier steroids representing substrates and products (17α-hydroxypregnenolone, dehydroepiandrosterone, and androst-5-ene-3β,17β-diol and 0.8 mL of distilled, deionized water are also added at this time. The steroids are extracted by the method of Moore and Wilson (Methods in Enzymol., eds. O'Malley, B. W. and Hardman, J. G. 36, 1975, pp.466-474). The organic phase containing the steroids is evaporated using nitrogen gas, the residue is dissolved in 18% tetrahydrofuran (v/v) in hexane and the steroids are separated by HPLC on an Si60 (5 μm) column (250×4 mm) using a gradient of 18-22% tetrahydrofuran (v/v) in hexane. Radioactivity in the steroid peaks is measured using a Radiometric Model HS or Model A515 Flo-One detector.
(§2) The enzyme activity for each assay is calculated from the percent conversion of substrate to products, and the results are expressed as percent inhibition of control.

[2] = molecular target: T1, Cynomolgus Monkey Testicular C17-20 Lyase; assay: Screen for inhibition of cynomolgus monkey testicular C17-20 lyase by compounds of formula (II)
Protocol: as §1, §2

[3] = molecular target: T2, Human Testicular C17-20 Lyase (Homo sapiens, UniProt P05093); assay: Screen for time-dependent inhibition of human testicular C17-20 lyase (microsomal preparation)
T2 construct: Microsomes are isolated from human or cynomolgus monkey tissue; from tissue; host or cells: human testes from therapeutic orchiectomies, microsomes
T2 sequence (P05093 1-508): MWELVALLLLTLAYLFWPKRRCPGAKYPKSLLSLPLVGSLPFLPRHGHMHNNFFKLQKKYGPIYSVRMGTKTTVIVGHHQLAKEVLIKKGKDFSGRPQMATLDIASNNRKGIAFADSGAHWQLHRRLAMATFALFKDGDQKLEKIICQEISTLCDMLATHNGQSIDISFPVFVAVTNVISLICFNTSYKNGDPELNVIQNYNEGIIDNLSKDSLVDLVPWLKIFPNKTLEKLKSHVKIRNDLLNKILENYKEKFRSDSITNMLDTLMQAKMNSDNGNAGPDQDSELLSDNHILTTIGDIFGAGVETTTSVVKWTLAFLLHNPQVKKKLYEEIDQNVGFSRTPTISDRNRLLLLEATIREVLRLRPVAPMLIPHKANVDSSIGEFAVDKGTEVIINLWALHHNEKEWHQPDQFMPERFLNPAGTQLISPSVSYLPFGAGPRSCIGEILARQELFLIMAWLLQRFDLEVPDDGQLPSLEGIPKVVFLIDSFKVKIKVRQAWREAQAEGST
Protocol: as §1, §2

SMILES: C[C@]12CCC(=O)CC1=CC[C@@H]1[C@@H]2CC[C@]2(C)C(c3csc(N)n3)=CC[C@@H]12 [17-(2-amino-4-thiazolyl)-androsta-5,16-dien-3-one]
- inhibition at 1 µM ([1]; preincubation 0 min): 66%
- inhibition at 10 µM ([1]; preincubation 0 min): 92%

SMILES: C[C@]12CC[C@H](O)CC1=CC[C@@H]1[C@@H]2CC[C@]2(C)C(c3ccco3)=CC[C@@H]12 [17-(2-furanyl)androsta-5,16-dien-3β-ol, (3β)-17-(2-furanyl)-androsta-5,16-dien-3-ol]
- inhibition at 0.1 µM [2]: 10%
- inhibition at 1 µM [2]: 72%

SMILES: C[C@]12CC[C@H](O)CC1=CC[C@@H]1[C@@H]2CC[C@]2(C)C(c3cccs3)=CC[C@@H]12 [17-(2-thienyl)androsta-5,16-dien-3β-ol, (3β)-17-(2-thienyl)-androsta-5,16-dien-3-ol]
- inhibition at 0.1 µM [2]: 43%
- inhibition at 1 µM [2]: 75%

SMILES: C[C@]12CC[C@H](O)CC1=CC[C@@H]1[C@@H]2CC[C@]2(C)C(c3ccoc3)=CC[C@@H]12 [17-(3-furanyl)androsta-5,16-dien-3β-ol, (3β)-17-(3-furanyl)-androsta-5,16-dien-3-ol]
- inhibition at 0.1 µM [2]: 53%
- inhibition at 1 µM [2]: 91%

SMILES: C[C@]12CC[C@H](O)CC1=CC[C@@H]1[C@@H]2CC[C@]2(C)C(c3ccsc3)=CC[C@@H]12 [17-(3-thienyl)androsta-5,16-dien-3β-ol, (3β)-17-(3-thienyl)-androsta-5,16-dien-3-ol]
- inhibition at 0.1 µM [2]: 21%
- inhibition at 1 µM [2]: 42%

SMILES: C[C@]12CC[C@H](O)CC1=CC[C@@H]1[C@@H]2CC[C@]2(C)C(c3csc(N)n3)=CC[C@@H]12 [(3β)-17-(2-amino-4-thiazolyl)-androsta-5,16-dien-3-ol.HBr.CH3 CH2 OH]
- inhibition at 1 µM ([3]; preincubation 0 min): 44%
- inhibition at 10 µM ([3]; preincubation 0 min): 62%
- inhibition at 1 µM ([3]; preincubation 40 min): 32%
- inhibition at 10 µM ([3]; preincubation 40 min): 29%

SMILES: CNc1nc(C2=CC[C@H]3[C@@H]4CC=C5C[C@@H](O)CC[C@]5(C)[C@H]4CC[C@]23C)cs1 [(3β)-17-[2-(methylamino)-4-thiazolyl]-androsta-5,16-dien-3-ol.HBr]
- inhibition at 1 µM ([1]; preincubation 0 min): 28%
- inhibition at 10 µM ([1]; preincubation 0 min): 40%
- inhibition at 1 µM ([1]; preincubation 40 min): 26%
- inhibition at 10 µM ([1]; preincubation 40 min): 80%
